In PubChem BioAssay (NCI):
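Each compound was tested at five concentrations against cells in 96-well plates for 48 hours. TGI: total growth inhibition.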

Columns and labels:
Experiment in all cases: growth of human tumour cells (NCI), 48 h
[1] = test system: 786-0 renal
[2] = test system: A549 NSCLC
[3] = test system: ACHN renal
[4] = test system: CCRF-CEM leukemia
[5] = test system: COLO 205 colon
[6] = test system: DLD-1 colon
[7] = test system: DMS 114 small cell lung
[8] = test system: DMS 273 small cell lung
[9] = test system: HCC-2998 colon
[10] = test system: HCT-116 colon
[11] = test system: HCT-15 colon
[12] = test system: HOP-18 NSCLC
[13] = test system: HOP-62 NSCLC
[14] = test system: HOP-92 NSCLC
[15] = test system: IGROV1 ovarian
[16] = test system: K-562 leukemia
[17] = test system: KM20L2 colon
[18] = test system: LOX IMVI melanoma
[19] = test system: LXFL 529 NSCLC
[20] = test system: M14 melanoma
[21] = test system: M19-MEL melanoma
[22] = test system: MALME-3M melanoma
[23] = test system: MOLT-4 leukemia
[24] = test system: NCI-H226 lung
[25] = test system: NCI-H522 lung
[26] = test system: OVCAR-3 ovarian
[27] = test system: OVCAR-4 ovarian
[28] = test system: OVCAR-5 ovarian
[29] = test system: OVCAR-8 ovarian
[30] = test system: RXF 393 renal
[31] = test system: SF-268 CNS
[32] = test system: SF-295 CNS
[33] = test system: SF-539 CNS
[34] = test system: SK-MEL-2 melanoma
[35] = test system: SK-MEL-28 melanoma
[36] = test system: SK-MEL-5 melanoma
[37] = test system: SK-OV-3 ovarian
[38] = test system: SN12C renal
[39] = test system: SNB-19 CNS
[40] = test system: SNB-75 CNS
[41] = test system: SNB-78 CNS
[42] = test system: SW-620 colon
[43] = test system: TK-10 renal
[44] = test system: U251 CNS
[45] = test system: UACC-257 melanoma
[46] = test system: UO-31 renal

`Cn1cc2ccccc2c1-c1nc(F)nc(Oc2ccc3c(c2)CC[C@@H]2C3CC[C@]3(C)C(O)CCC23)n1` (stereo partly specified) gave a TGI [1] of 30.5 µM, a TGI [2] of 48.9 µM and a TGI [3] of 34.1 µM. For the same compound, the TGI [4] was 36.5 µM, the TGI [5] was 44.2 µM and the TGI [6] was 30.9 µM. For the same compound, the TGI [7] was 37.8 µM, the TGI [8] was 43.2 µM and the TGI [9] was 36.4 µM. The TGI [10] was 35.8 µM, the TGI [11] was 33.4 µM and the TGI [12] was 35.7 µM. It also gave a TGI [13] of 33 µM, a TGI [14] of 44.3 µM and a TGI [15] of 30.8 µM. For the same compound, the TGI [16] was > 100 µM, the TGI [17] was 36.9 µM and the TGI [18] was 36.9 µM. It also gave a TGI [19] of 31.6 µM, a TGI [20] of 30.1 µM and a TGI [21] of 47.8 µM. The TGI [22] was 39.9 µM, the TGI [23] was 65.7 µM and the TGI [24] was > 100 µM. The TGI [25] was 26 µM, the TGI [26] was 31.8 µM and the TGI [27] was 28.5 µM. It also gave a TGI [28] of 33.3 µM, a TGI [29] of 36 µM and a TGI [30] of 72.3 µM. For the same compound, the TGI [31] was 35.1 µM, the TGI [32] was 30.2 µM and the TGI [33] was 32.7 µM. The TGI [34] was 36.1 µM, the TGI [35] was 33.2 µM and the TGI [36] was 30.2 µM. It also gave a TGI [37] of 36.3 µM, a TGI [38] of 33.8 µM and a TGI [39] of 34.7 µM. The TGI [40] was 28.6 µM, the TGI [41] was 36.1 µM and the TGI [42] was 43.5 µM. The TGI [43] was 31.7 µM, the TGI [44] was 28 µM and the TGI [45] was 36.3 µM. It also gave a TGI [46] of 63.6 µM.
